The record followed here is article PMC10214525, “A Turn-On Fluorescent Amino Acid Sensor Reveals Chloroquine’s Effect on Cellular Amino Acids via Inhibiting Cathepsin L” (ACS Central Science, 2023).

The IC50 is the concentration that inhibits the measured activity by half. The low end stands for inhibition by little substance, the high end for a need for much substance.

The target of one experiment is T1, Cathepsin L (CTSL) (Homo sapiens, UniProt P07711).
T1 construct: commercial purified CTSL (BPS Biosciences kit); CTSL-Flag-Myc purified from HEK-293T for intrinsic fluorescence
T1 sequence (P07711 114-288): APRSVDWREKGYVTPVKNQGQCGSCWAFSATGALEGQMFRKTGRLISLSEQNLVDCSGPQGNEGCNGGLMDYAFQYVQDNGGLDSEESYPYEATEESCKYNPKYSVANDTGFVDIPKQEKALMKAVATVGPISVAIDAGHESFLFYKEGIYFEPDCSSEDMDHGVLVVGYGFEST
T1 sequence (P07711 292-333): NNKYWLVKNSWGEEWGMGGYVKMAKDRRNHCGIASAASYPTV
As to the kind of experiment: Z-FR-AMC fluorogenic cleavage assay, pH […]; supported by intrinsic fluorescence of CTSL-Flag and CQ-X chase. The class given is biochemical.

A further experiment deals with T2, NPC2 (Homo sapiens, UniProt P61916).
T2 construct: endogenous, A549 cells
T2 sequence (P61916 20-151): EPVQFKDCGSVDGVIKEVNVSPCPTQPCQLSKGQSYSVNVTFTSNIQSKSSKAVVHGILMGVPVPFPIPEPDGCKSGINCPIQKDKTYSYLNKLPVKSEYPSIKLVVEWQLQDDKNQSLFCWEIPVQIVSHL
As to the kind of experiment: competition (chase) of CQ-X photo-cross-linking in cells. The class given is cell-based.

With `CCN(CC)CCCC(C)Nc1ccnc2cc(Cl)ccc12` (centres unmarked) [CQ, chloroquine], at Cathepsin L (CTSL), the IC50 was found to be 181 µM. Also, the “competition (chase) of CQ-X photo-cross-linking in cells” value at NPC2 is “The results confirmed that chloroquine could bind to NPC2 and CTSL”.
